Reference: patent US20220112175A1, “PYRIDAZINES HERBICIDAL COMPOUNDS” (SYNGENTA CROP PROTECTION AG, priority 2019, published 2022)
Read-outs that look alike come from different tables or passages of the source.

Assays:
Test in all cases: Post-emergence efficacy, glasshouse pot test
Format in all cases: in vivo
[1] = test system: Ipomoea hederacea (IPOHE); conditions: 312 h, read-out: Post-emergence efficacy IPOHE (100=total damage to plant; 0=no damage to plant)
Procedure: (§1) Seeds of a variety of test species were sown in standard soil in pots. After cultivation for 14 days (post-emergence) under controlled conditions in a glasshouse (at 24/16° C., day/night; 14 hours light; 65% humidity), the plants were sprayed with an aqueous spray solution derived from the dissolution of the technical active ingredient formula (I) in a small amount of acetone and a special solvent and emulsifier mixture referred to as IF50 (11.12% Emulsogen EL360 TM+44.44% N-methylpyrrolidone+44.44% Dowanol DPM glycol ether), to create a 50 g/l solution which was then diluted to required concentration using 0.25% or 1% Empicol ESC70 (Sodium lauryl ether sulphate)+1% ammonium sulphate as diluent.
(§2) The test plants were then grown in a glasshouse under controlled conditions (at 24/16° C., day/night; 14 hours light; 65% humidity) and watered twice daily. After 13 days the test was evaluated (100=total damage to plant; 0=no damage to plant).
(§3) Ipomoea hederacea (IPOHE), Euphorbia heterophylla (EPHHL), Chenopodium album (CHEAL), Amaranthus palmeri (AMAPA), Lolium perenne (LOLPE), Digitaria sanguinalis (DIGSA), Eleusine indica (ELEIN), Echinochloa crus-galli (ECHCG), Setaria faberi (SETFA)

Lolium perenne (LOLPE) = conditions: 312 h, read-out: Post-emergence efficacy LOLPE (100=total damage to plant; 0=no damage to plant)
Procedure: as §1, §2, §3

[2] = test system: Amaranthus palmeri (AMAPA); conditions: 312 h, read-out: Post-emergence efficacy AMAPA (100=total damage to plant; 0=no damage to plant)
Procedure: as §1, §2, §3

Setaria faberi (SETFA) = conditions: 312 h, read-out: Post-emergence efficacy SETFA (100=total damage to plant; 0=no damage to plant)
Procedure: as §1, §2, §3

[3] = test system: Chenopodium album (CHEAL); conditions: 312 h, read-out: Post-emergence efficacy CHEAL (100=total damage to plant; 0=no damage to plant)
Procedure: as §1, §2, §3

[4] = test system: Digitaria sanguinalis (DIGSA); conditions: 312 h, read-out: Post-emergence efficacy DIGSA (100=total damage to plant; 0=no damage to plant)
Procedure: as §1, §2, §3

[5] = test system: Euphorbia heterophylla (EPHHL); conditions: 312 h, read-out: Post-emergence efficacy EPHHL (100=total damage to plant; 0=no damage to plant)
Procedure: as §1, §2, §3

Eleusine indica (ELEIN) = conditions: 312 h, read-out: Post-emergence efficacy ELEIN (100=total damage to plant; 0=no damage to plant)
Procedure: as §1, §2, §3

[6] = test system: Echinochloa crus-galli (ECHCG); conditions: 312 h, read-out: Post-emergence efficacy ECHCG (100=total damage to plant; 0=no damage to plant)
Procedure: as §1, §2, §3

[7] = Application rate 500 g/Ha, post-emergence spray, evaluated after 13 days

SMILES	pest or weed control at 500 g/ha [1, 7]	pest or weed control at 500 g/ha (Lolium perenne (LOLPE); [7])	pest or weed control at 500 g/ha [2, 7]	pest or weed control at 500 g/ha (Setaria faberi (SETFA); [7])	pest or weed control at 500 g/ha [3, 7]	pest or weed control at 500 g/ha [4, 7]	pest or weed control at 500 g/ha [5, 7]	pest or weed control at 500 g/ha (Eleusine indica (ELEIN); [7])	pest or weed control at 500 g/ha [6, 7]	pest or weed control at 500 g/ha ([1]; post-emergence)	pest or weed control at 500 g/ha (Lolium perenne (LOLPE); post-emergence)	pest or weed control at 500 g/ha ([2]; post-emergence)	pest or weed control at 500 g/ha (Setaria faberi (SETFA); post-emergence)	pest or weed control at 500 g/ha ([3]; post-emergence)	pest or weed control at 500 g/ha ([4]; post-emergence)	pest or weed control at 500 g/ha ([5]; post-emergence)	pest or weed control at 500 g/ha (Eleusine indica (ELEIN); post-emergence)	pest or weed control at 500 g/ha ([6]; post-emergence)
CC(C)(NC(=O)C[n+]1ccc(-c2nccs2)cn1)C(=O)O [Compound A9]	20%	30%	100%	40%	50%	40%	80%	70%	30%									
Cn1cnc(-c2cc[n+](CSCCC(=O)O)nc2)n1 [Compound A7]	20%	70%	100%	100%	90%	100%	70%	90%	100%									
CN(CC(=O)O)C(=O)C[n+]1ccc(-c2nccs2)cn1 [Compound A11]	20%	30%	90%	50%	20%	40%	90%	50%	50%									
Cn1cnc(-c2cc[n+](CSCC(=O)O)nc2)n1 [Compound A8, 2-[[4-(1-methyl-1,2,4-triazol-3-yl)pyridazin-1-ium-1-yl]methylsulfanyl]acetic acid chloride]	30%	70%	100%	100%	90%	100%	70%	100%	100%									
CC(NC(=O)CC[n+]1ccc(-c2ncsn2)cn1)C(=O)O (stereo not drawn) [Compound A20]	60%	90%	100%	100%	100%	100%	80%	90%	100%									
CC(C)(NC(=O)C[n+]1ccc(-c2ncsn2)cn1)C(=O)O [Compound A21]	70%	40%	100%	100%	90%	30%	80%	40%	30%									
CC(NC(=O)C[n+]1ccc(-c2ncsn2)cn1)C(=O)O (stereo not drawn) [Compound A19]	50%	40%	100%	90%	90%	80%	90%	80%	80%									
CC(NC(=O)CC[n+]1ccc(-c2nccs2)cn1)C(=O)O (stereo not drawn) [Compound A16]	20%	60%	100%	100%	90%	100%	40%	100%	100%									
O=C(O)CNC(=O)CC[n+]1ccc(-c2nccs2)cn1 [Compound A14]	70%	50%	100%	90%	90%	100%	100%	100%	100%									
CC(NC(=O)C[n+]1ccc(-c2nccs2)cn1)C(=O)O (stereo not drawn) [Compound A10]	60%	20%	100%	40%	90%	40%	90%	40%	60%									
O=C(O)CNS(=O)(=O)CC[n+]1ccc(-c2nccs2)cn1 [Compound A17, 2-[2-(4-thiazol-2-ylpyridazin-1-ium-1-yl)ethylsulfonylamino]acetic acid 2,2,2-trifluoroacetate]	10%	0%	0%	20%	30%	80%	20%	10%	20%									
Cn1cnc(-c2cc[n+](CC(=O)NCC(=O)O)nc2)n1 [Compound A2, 2-[[2-[4-(1-methyl-1,2,4-triazol-3-yl)pyridazin-1-ium-1-yl]acetyl]amino]acetic acid chloride]										40%	40%	100%	100%	70%	100%	50%	80%	100%
CN(CC(=O)O)C(=O)C[n+]1ccc(-c2ncn(C)n2)cn1 [Compound A3]	40%	30%	100%	100%	100%	100%	50%	90%	100%									
O=C(O)CNC(=O)CC[n+]1ccc(-c2ncco2)cn1 [Compound A13]	60%	60%	100%	100%	100%	100%	90%	90%	100%									
CC(C)(NS(=O)(=O)CC[n+]1ccc(-c2nccs2)cn1)C(=O)O [Compound A18]	0%	0%	30%	20%	50%	0%	10%	0%	10%									
